Results: DBAASP
Converted amounts (≈) assume the structure as drawn. Each block holds one molecule with its values, some of them ahead of it.

How the values were obtained:
Test in all cases: ≥ marks a high value that may be exact or a test limit, other limits are often not marked, values filed in µg/mL are converted to µM
[1] = tested on: Candida albicans FRR 5580
[2] = tested on: Escherichia coli ATCC 25922
Staphylococcus aureus = tested on: Staphylococcus aureus
[3] = tested on: Staphylococcus aureus ATCC 25923
[4] = tested on: Pseudomonas aeruginosa ATCC 9027
[5] = tested on: Micrococcus luteus ATCC 10240
Escherichia coli BL21AI = tested on: Escherichia coli BL21AI
Escherichia coli K-12 = tested on: Escherichia coli K-12
[6] = tested on: Staphylococcus aureus USA 300
Leuconostoc lactis = tested on: Leuconostoc lactis
Streptococcus uberis = tested on: Streptococcus uberis
[7] = tested on: Salmonella typhimurium KCTC 1926
[8] = tested on: Pseudomonas aeruginosa KCTC 1637
[9] = tested on: Staphylococcus aureus KCTC 1621
[10] = tested on: Staphylococcus epidermidis KCTC 1917
[11] = tested on: Candida albicans KCTC 7965
[12] = tested on: Bacillus subtilis KCTC 3068
[13] = tested on: Escherichia coli KCTC 1682
[14] = tested on: Staphylococcus aureus CIP 677
[15] = tested on: Lactococcus lactis subsp. cremoris I116
[16] = tested on: Enterococcus faecium ATCC 700221
[17] = tested on: Staphylococcus aureus ATCC 33591
[18] = tested on: Pseudomonas aeruginosa ATCC 27853
[19] = tested on: Candida albicans ATCC 200955
[20] = tested on: Staphylococcus aureus ATCC 43300
[21] = tested on: Staphylococcus aureus ATCC 29213
Escherichia coli = tested on: Escherichia coli
Salmonella sp. = tested on: Salmonella sp.
Yersinia enterocolitica = tested on: Yersinia enterocolitica
[22] = tested on: Salmonella enterica subsp. enterica serovar Enteritidis
[23] = tested on: Micrococcus luteus ATCC 4698
[24] = tested on: Staphylococcus epidermidis ATCC 12228
[25] = tested on: Escherichia coli DH5alpha
[26] = tested on: Staphylococcus aureus ATCC 6538
[27] = tested on: Klebsiella pneumoniae K6 ATCC 700603
[28] = tested on: Salmonella enterica subsp. enterica serovar Typhimurium ATCC 700408
Escherichia coli D31 = tested on: Escherichia coli D31

SMILES: NCCCC[C@H](NC(=O)[C@H](Cc1c[nH]c2ccccc12)NC(=O)[C@H](Cc1c[nH]c2ccccc12)NC(=O)[C@H](CCCN=C(N)N)NC(=O)[C@@H](N)Cc1c[nH]c2ccccc12)C(=O)N[C@@H](Cc1c[nH]c2ccccc12)C(=O)N[C@@H](Cc1c[nH]c2ccccc12)C(N)=O [WRWWKWW]
MIC [1]: ≥ 51.9 µM
MIC [2]: 3.24 µM (≈ 4 µg/mL)
MIC (Staphylococcus aureus): 6.49 µM (≈ 7.99 µg/mL)
MIC [3]: 6.49 µM (≈ 7.99 µg/mL)
MIC [4]: 25.9 µM (≈ 32 µg/mL)

SMILES: NCCCC[C@H](NC(=O)[C@H](Cc1c[nH]c2ccccc12)NC(=O)[C@H](Cc1c[nH]c2ccccc12)NC(=O)[C@H](CCCCN)NC(=O)[C@H](Cc1c[nH]c2ccccc12)NC(=O)[C@H](Cc1c[nH]c2ccccc12)NC(=O)[C@H](CCCN=C(N)N)NC(=O)[C@@H](N)Cc1c[nH]c2ccccc12)C(N)=O [WRWWKWWK]
MIC [1]: ≥ 47 µM
MIC [2]: 2.94 µM (≈ 4 µg/mL)
MIC [3]: 5.88 µM (≈ 7.99 µg/mL)
MIC [4]: 23.5 µM (≈ 32 µg/mL)

SMILES: CC[C@H](C)[C@H](NC(=O)[C@H](Cc1ccc(O)cc1)NC(=O)[C@@H](NC(=O)[C@@H]1CCCN1C(=O)[C@H](CCCN=C(N)N)NC(=O)[C@H](CC(N)=O)NC(=O)[C@H](CC(N)=O)NC(=O)CN)C(C)C)C(=O)N[C@@H](C)C(=O)N[C@@H](CCC(N)=O)C(=O)N1CCC[C@H]1C(=O)N[C@@H](CCCN=C(N)N)C(=O)N1CCC[C@H]1C(=O)N1CCC[C@H]1C(=O)N[C@@H](Cc1cnc[nH]1)C(=O)N1CCC[C@H]1C(=O)N[C@@H](CCCN=C(N)N)C(=O)N[C@@H](CC(C)C)C(N)=O [GNNRPVYIAQPRPPHPRL]
MIC [5]: ≥ 60 µM
MIC (Escherichia coli BL21AI): ≥ 60 µM

SMILES: CC(C)C[C@H](NC(=O)[C@H](Cc1ccccc1)NC(=O)CNC(=O)[C@H](Cc1c[nH]c2ccccc12)NC(=O)[C@H](Cc1c[nH]c2ccccc12)NC(=O)[C@H](Cc1c[nH]c2ccccc12)NC(=O)CNC(=O)[C@H](Cc1ccccc1)NC(=O)[C@H](CCCN=C(N)N)NC(=O)[C@H](CCCN=C(N)N)NC(=O)[C@@H](N)C(C)C)C(=O)N[C@@H](CCCN=C(N)N)C(=O)N[C@@H](CCCN=C(N)N)C(=O)O [VRRFGWWWGFLRR]
MIC [7]: 17.6 µM (≈ 32 µg/mL)
MIC [8]: ≥ 35.1 µM
MIC [9]: 8.78 µM (≈ 16 µg/mL)
MIC [10]: 4.39 µM (≈ 8 µg/mL)
MIC [11]: 17.6 µM (≈ 32 µg/mL)
MIC [12]: 8.78 µM (≈ 16 µg/mL)
MIC [13]: 17.6 µM (≈ 32 µg/mL)

SMILES: CC[C@H](C)[C@H](NC(=O)[C@H](CCCN=C(N)N)NC(=O)[C@H](CCCCN)NC(=O)[C@H](CC(C)C)NC(=O)[C@H](CC(C)C)NC(=O)CN)C(=O)N[C@@H](CCCCN)C(=O)N[C@@H](CCCCN)C(=O)N[C@@H](CC(C)C)C(=O)N[C@@H](CC(C)C)C(N)=O [GLLKRIKKLL]
MIC [16]: ≥ 66.3 µM
MIC [17]: ≥ 256 µM
MIC [18]: 28.4 µM (≈ 33.5 µg/mL)
MIC [3]: 4.23 µM (≈ 5 µg/mL)
MIC [19]: ≥ 85.3 µM

SMILES: NCCCC[C@H](NC(=O)[C@H](CCCCN)NC(=O)[C@H](Cc1ccccc1)NC(=O)[C@H](CCCCN)NC(=O)[C@H](CCCN=C(N)N)NC(=O)[C@H](CCCN=C(N)N)NC(=O)[C@H](Cc1ccccc1)NC(=O)[C@H](CCCCN)NC(=O)[C@@H](N)CCCN=C(N)N)C(N)=O [RKFRRKFKK]
MIC [20]: > 50 µM
MIC [2]: > 50 µM
MIC [21]: > 50 µM
MIC [18]: > 50 µM
MIC (Escherichia coli): > 50 µM
MIC (Salmonella sp.): ≥ 50 µM
MIC (Yersinia enterocolitica): ≥ 50 µM
MIC [22]: ≥ 50 µM

SMILES: CC[C@H](C)[C@H](NC(=O)[C@H](Cc1ccc(O)cc1)NC(=O)[C@@H](NC(=O)[C@@H]1CCCN1C(=O)[C@H](CCCN=C(N)N)NC(=O)[C@H](CC(N)=O)NC(=O)[C@H](CC(N)=O)NC(=O)CN)C(C)C)C(=O)N1CCC[C@H]1C(=O)N[C@@H](CCC(N)=O)C(=O)N1CCC[C@H]1C(=O)N[C@@H](CCCN=C(N)N)C(=O)N1CCC[C@H]1C(=O)N1CCC[C@H]1C(=O)N[C@@H](Cc1cnc[nH]1)C(=O)N1CCC[C@H]1C(=O)N[C@@H](CCCN=C(N)N)C(=O)N[C@@H](Cc1ccccc1)C(N)=O [GNNRPVYIPQPRPPHPRF]
MIC [27]: 29.9 µM (≈ 64 µg/mL)
MIC [28]: 1.87 µM (≈ 4 µg/mL)
MIC (Escherichia coli D31): ≥ 59.7 µM

Now from value to molecule:

MIC (Escherichia coli K-12): ≥ 100 µM
MIC [6]: ≥ 100 µM
MIC (Leuconostoc lactis): 25 µM (≈ 50.2 µg/mL)
MIC (Streptococcus uberis): ≥ 50 µM
SMILES: CC(C)C[C@H](NC(=O)CN)C(=O)N[C@@H](C)C(=O)N[C@@H](CC(=O)O)C(=O)N[C@@H](Cc1ccccc1)C(=O)N[C@@H](CC(C)C)C(=O)N[C@@H](CC(N)=O)C(=O)N[C@@H](CCCCN)C(=O)N[C@@H](C)C(=O)N[C@H](C(=O)NCC(=O)N[C@@H](CCCCN)C(=O)N[C@H](C(=O)N[C@H](C(=O)N[C@@H](CC(=O)O)C(=O)N[C@@H](Cc1ccccc1)C(=O)N[C@H](C(=O)N[C@@H](CCCCN)C(=O)N[C@@H](CO)C(N)=O)C(C)C)C(C)C)C(C)C)C(C)C [GLADFLNKAVGKVVDFVKS]

MIC [14]: 8 µM (≈ 21.9 µg/mL)
MIC [15]: 4 µM (≈ 10.9 µg/mL)
SMILES: CC[C@H](C)[C@H](NC(=O)CN)C(=O)N[C@@H](Cc1c[nH]c2ccccc12)C(=O)NCC(=O)N[C@H](C(=O)N[C@@H](CC(C)C)C(=O)N[C@@H](C)C(=O)N[C@@H](CCCCN)C(=O)N[C@H](C(=O)NCC(=O)N[C@H](C(=O)N[C@@H](CCCCN)C(=O)N[C@@H](C)C(=O)N[C@H](C(=O)N1CCC[C@H]1C(=O)N[C@@H](CCCN=C(N)N)C(=O)N[C@H](C(=O)N[C@H](C(=O)N[C@@H](CO)C(=O)N[C@@H](CCSC)C(=O)N[C@@H](CC(C)C)C(=O)N[C@@H](CCCCN)C(=O)N[C@@H](CCCCN)C(=O)N[C@@H](CCCCN)C(=O)N[C@@H](CCC(N)=O)C(=O)O)[C@@H](C)CC)C(C)C)C(C)C)[C@@H](C)CC)[C@@H](C)CC)[C@@H](C)O [GIWGTLAKIGIKAVPRVISMLKKKQ]

MIC [23]: 4.27 µM (≈ 6 µg/mL)
MIC [24]: 12.8 µM (≈ 18 µg/mL)
MIC [25]: 21.3 µM (≈ 30 µg/mL)
MIC [26]: 7.82 µM (≈ 11 µg/mL)
SMILES: CC(C)C[C@H](NC(=O)[C@H](CC(C)C)NC(=O)[C@H](CCCCN)NC(=O)[C@H](CO)NC(=O)[C@H](CC(C)C)NC(=O)[C@H](C)NC(=O)[C@H](CCCCN)NC(=O)[C@H](Cc1ccccc1)NC(=O)[C@@H](NC(=O)[C@H](C)NC(=O)CNC(=O)[C@H](CC(C)C)NC(=O)[C@@H](N)Cc1ccccc1)C(C)C)C(=O)O [FLGAVFKALSKLL]

MIC [23]: 2.68 µM (≈ 4 µg/mL)
MIC [24]: 6.7 µM (≈ 10 µg/mL)
MIC [25]: 16.8 µM (≈ 25 µg/mL)
MIC [26]: 4.02 µM (≈ 6 µg/mL)
SMILES: CC(C)C[C@H](NC(=O)[C@H](CC(C)C)NC(=O)[C@H](CCCCN)NC(=O)[C@H](CO)NC(=O)[C@H](CC(C)C)NC(=O)[C@H](C)NC(=O)[C@H](CCCCN)NC(=O)[C@H](Cc1ccccc1)NC(=O)[C@H](CC(C)C)NC(=O)[C@H](C)NC(=O)[C@H](CCCCN)NC(=O)[C@H](CC(C)C)NC(=O)[C@@H](N)Cc1ccccc1)C(=O)O [FLKALFKALSKLL]
